# EP0100673A2, “A method of enhancing neurofiber regrowth” (THE RESEARCH FOUNDATION OF STATE UNIVERSITY OF NEW YORK, priority 1982, dated 1984)
# Assays:
# Assay type in all cases: in vivo, rat
# [1] = system: muscles of the operated hindlimb; assay: Myofiber diameter by light microscopy after sciatic nerve severing and microsurgical repair; conditions: for % Difference Treated vs. Control: myofiber diameter
# Experimental: (§1) lwenty raty art anenthetizve with sel rompun (0.5 cc total volume). The right sciatic nerve is exposed and severed with microneuroscissors, and subsequently repaired microsurgically with 6-8 circumferential microsutures using 10-0 nylon. Immediately following surgery the treated animals receive 12 mg/kg Ac leupeptin in 5% DMSO (dimethylsulphoxide) as a bath on their sciatic nerve, 0.25 cc. total volume. Then the treated animals are injected intramuscularly in right hindlimb with 0.25 cc of a solution containing 12 mg/kg Ac leupeptin in 5% DMSO. Control animals receive the same surgical treatment, but the bath and intramuscular injection consist only of the solvent and 5% DMSO.
# (§2) Thereafter, treated animals are injected twice weekly in the operated hindlimb with 12 mg/kg Ac leupeptin in 5% DMSO (0.25 cc total volume) for periods of 1 week, 1 month, two months, three months - and six months. Control animals are injected with 0.25 cc of 5% DMSO twice weekly in the operated hindlimb for the same time period.
# (§3) Two treated and two control animals are assigned to each of the stated time periods.
# (§4) All animals are sacrified by an overdose of pentobarbital, 1.0 cc total volume. The gastro- cnemius, soleus and extensor digitorum longus muscles of the operated hindlimb are execised from origin to insertion, weighed and then frozen in isopentane in liquid nitrogen […]. For light microscopy, cryostat sections are cut, placed on slides and stained with hematoxylin and eosin and/or ATPase histochemistry at pH's of 4.3 and 10.4. Myofiber diameters are determined by photographing hematoxylin and eosin sections at a constant magnification in the light microscope.
# sciatic nerve = assay: Counts of myelinated axons 5.0 mm distal to repair by light microscopy; conditions: for Counts of Myelinated Axons - 5.0 mm Distal to Repair by Light Microscopy 1.0 X 10^5 µm^2 - of Area: 12 mg/kg in 5% DMSO, bath + i.m. twice weekly; for % Difference Treated vs. Control: myelinated axons distal, light microscopy
# Experimental: as §1, §2, §3
# A ten mm. portion of the repaired sciatic nerve is excised from each animal. This is fixed in 3.0% glutaraldehyde in 0.1 M sodium cacodylate, pH 7.3, overnight for electron microscopy. After post-fixation in 1.0% osmium tetroxide, ethanol dehydration and embedding in Polybed 812, both thick (1 micron) and thin (500 A°) transverse sections are cut on a ultramicrotome. Portions of the excised muscles receive similar preparation for electron microscopy.
# Thick sections of the sciatic nerve are placed on microscope slots stained with toluidine blue and photographed at a constant magnification in the light microscope. Thin sections of both nerve and muscles are placed on 300 mesh copper grid calm, stained with uranyl acetate and lead citrate and photographed using a Hitachi HU-12 electron microscope.
# [2] = system: muscles of the operated hindlimb; assay: Wet weight of hindlimb muscles after sciatic nerve severing and microsurgical repair; conditions: for Average Wet Weight (g) of Muscles: 12 mg/kg in 5% DMSO, bath + i.m. twice weekly; for % Weight (+)gain or (-)loss Treated vs. Control / % Weight (+) gain (-) loss Treated vs. control / % Weight (+)gain or (-)loss: muscle wet weight; for % Weight (+) gain (-) loss Treated vs. control: One Week; for % Weight (+)gain or (-)loss: Three Month, treated vs. control
# Experimental: as §1, §2, §3, §4
structure (smiles),measurement,setting,value
"CC(=O)N[C@@H](CC(C)C)C(=O)N[C@@H](CC(C)C)C(=O)N[C@H](C=O)CCCNC(=N)N [Ac leupeptin, acetyl-L-leu-L-leu-L-argininal]",% Difference Treated vs. Control,"[1]; Six Month, E.D.L.",+29%
same,% Difference Treated vs. Control,"[1]; Six Month, GASTROCNEMIUS",+26%
same,% Difference Treated vs. Control,"[1]; Six Month, SOLEUS",+30%
same,% Difference Treated vs. Control,"[1]; Three Month, E.D.L.",+18%
same,% Difference Treated vs. Control,"[1]; Three Month, GASTROCNEMIUS",+3%
same,% Difference Treated vs. Control,"[1]; Three Month, SOLEUS",+9%
same,% Difference Treated vs. Control,"[1]; Two Month, E.D.L.",+10%
same,% Difference Treated vs. Control,"[1]; Two Month, GASTROCNEMIUS",+18%
same,% Difference Treated vs. Control,"[1]; Two Month, SOLEUS",+10%
same,myofiber diameter,[1]; treated muscle compared to control,significantly greater myofiber diameter when compared to control
same,Counts of Myelinated Axons - 5.0 mm Distal to Repair by Light Microscopy 1.0 X 10^5 µm^2 - of Area,sciatic nerve; One Month Treated,1467 1.0 X 10^5 µm^2 - of Area
same,Counts of Myelinated Axons - 5.0 mm Distal to Repair by Light Microscopy 1.0 X 10^5 µm^2 - of Area,sciatic nerve; One Week Treated,722 1.0 X 10^5 µm^2 - of Area
same,Counts of Myelinated Axons - 5.0 mm Distal to Repair by Light Microscopy 1.0 X 10^5 µm^2 - of Area,sciatic nerve; Six Month Treated,1620 1.0 X 10^5 µm^2 - of Area
same,Counts of Myelinated Axons - 5.0 mm Distal to Repair by Light Microscopy 1.0 X 10^5 µm^2 - of Area,sciatic nerve; Three Month Treated,2808 1.0 X 10^5 µm^2 - of Area
same,Counts of Myelinated Axons - 5.0 mm Distal to Repair by Light Microscopy 1.0 X 10^5 µm^2 - of Area,sciatic nerve; Two Month Treated,1625 1.0 X 10^5 µm^2 - of Area
same,% Difference Treated vs. Control,sciatic nerve; One Month,+2%
same,% Difference Treated vs. Control,sciatic nerve; One Week,+1%
same,% Difference Treated vs. Control,sciatic nerve; Six Month,0%
same,% Difference Treated vs. Control,sciatic nerve; Three Month,+1%
same,% Difference Treated vs. Control,sciatic nerve; Two Month,+12%
same,Average Wet Weight (g) of Muscles,"[2]; One Month Treated, E.D.L.",0.198 g
same,Average Wet Weight (g) of Muscles,"[2]; One Month Treated, GASTROCNEMIUS",.954 g
same,Average Wet Weight (g) of Muscles,"[2]; One Month Treated, SOLEUS",.379 g
same,Average Wet Weight (g) of Muscles,"[2]; One Week Treated, E.D.L.",0.116 g
same,Average Wet Weight (g) of Muscles,"[2]; One Week Treated, GASTROCNEMIUS",2.379 g
same,Average Wet Weight (g) of Muscles,"[2]; One Week Treated, SOLEUS",0.335 g
same,Average Wet Weight (g) of Muscles,"[2]; Six Month Treated, E.D.L.",0.163 g
same,Average Wet Weight (g) of Muscles,"[2]; Six Month Treated, GASTROCNEMIUS",1.577 g
same,Average Wet Weight (g) of Muscles,"[2]; Six Month Treated, SOLEUS",0.306 g
same,Average Wet Weight (g) of Muscles,"[2]; Three Month Treated, E.D.L.",0.178 g
same,Average Wet Weight (g) of Muscles,"[2]; Three Month Treated, GASTROCNEMIUS",1.563 g
same,Average Wet Weight (g) of Muscles,"[2]; Three Month Treated, SOLEUS",0.248 g
same,Average Wet Weight (g) of Muscles,"[2]; Two Months Treated, E.D.L.",0.202 g
same,Average Wet Weight (g) of Muscles,"[2]; Two Months Treated, GASTROCNEMIUS",1.371 g
same,Average Wet Weight (g) of Muscles,"[2]; Two Months Treated, SOLEUS",0.425 g
same,average wet weight in grams in treated muscles,"[2]; all time periods and muscles, vs. control",significantly greater than control
same,% Weight (+)gain or (-)loss Treated vs. Control,"[2]; One Month, E.D.L.",+62%
same,% Weight (+)gain or (-)loss Treated vs. Control,"[2]; One Month, GASTROCNEMIUS",+30%
same,% Weight (+)gain or (-)loss Treated vs. Control,"[2]; One Month, SOLEUS",+19%
same,% Weight (+) gain (-) loss Treated vs. control,[2]; E.D.L.,+18%
same,% Weight (+) gain (-) loss Treated vs. control,[2]; GASTROCNEMIUS,+37%
same,% Weight (+) gain (-) loss Treated vs. control,[2]; SOLEUS,+13%
same,% Weight (+)gain or (-)loss Treated vs. Control,"[2]; Six Month, E.D.L.",+18%
same,% Weight (+)gain or (-)loss Treated vs. Control,"[2]; Six Month, GASTROCNEMIUS",+15%
same,% Weight (+)gain or (-)loss Treated vs. Control,"[2]; Six Month, SOLEUS",+23%
same,% Weight (+)gain or (-)loss,[2]; E.D.L.,+13%
same,% Weight (+)gain or (-)loss,[2]; GASTROCNEMIUS,+18%
same,% Weight (+)gain or (-)loss,[2]; SOLEUS,+9%
same,% Weight (+)gain or (-)loss Treated vs. Control,"[2]; Two Months, E.D.L.",+43%
same,% Weight (+)gain or (-)loss Treated vs. Control,"[2]; Two Months, GASTROCNEMIUS",+14%
same,% Weight (+)gain or (-)loss Treated vs. Control,"[2]; Two Months, SOLEUS",+9%
